Measurements as given in article PMC6010098, “Synthesis, antitumour and antioxidant activities of novel α,β-unsaturated ketones and related heterocyclic analogues: EGFR inhibition and molecular modelling study” (Journal of Enzyme Inhibition and Medicinal Chemistry, 2018).

Tests used:
HepG2 cells = experiment: MTT antitumour assay, HepG2; format: cell-based; details: human hepato-cellular carcinoma cell line, mean ± SD, n = 3
Experimental: (§1) The evaluation of the antitumour activity was performed using tetrazolium salt MTT (3-(4,5-dimethyl-2-thiazolyl)-2,5-diphenyl-2H-tetrazolium bromide) assay as reported[62]^,[63].
(§2) The designed compounds were evaluated for their in vitro antitumour effects via the standard 3-(4,5-dimethylthiazol-2-yl)-2,5-diphenyltetrazolium bromide (MTT) method against a panel of four human tumour cell lines; namely, hepatocellular carcinoma cell line (HepG2), breast cancer cell line (MCF-7), human cervical cancer cell line (HeLa), and prostate cancer cell line (PC-3)[62]^,[63]^,[72]. The antitumour activities of the designed compounds 4–12, along with that of the reference drugs 5-FU and afatinib are shown in Table 1.

MCF-7 cells = experiment: MTT antitumour assay, MCF-7; format: cell-based; details: MCF7, human breast adenocarcinoma cell line, mean ± SD, n = 3
Experimental: as §1, §2

HeLa cells = experiment: MTT antitumour assay, HeLa; format: cell-based; details: human cervical epithelioid carcinoma cell line, mean ± SD, n = 3
Experimental: as §1
as §2, with “(PC-3)[62]^,[63]^,[72].” for “(PC-3)[62]^,[63]^,[72]. The antitumour activities of the designed compounds 4–12, along with that of the reference drugs 5-FU and afatinib are shown in Table 1.”

PC-3 cells = experiment: MTT antitumour assay, PC-3; format: cell-based; details: PC-3; MTT; human prostate cancer cell line; mean ± SD, n = 3
Experimental: as §1, §2

[1] = ABTS radical cation scavenging (antioxidant) assay; details: 20 µl of 1 mg/ml test sample (L-ascorbic acid 20 µl, 2 mM)
Experimental: The absorbance (Acontrol) of a green-blue solution (ABTS^+ radical solution) resulted from a mixture of ABTS and manganese dioxide (MnO2) and was recorded at λmax 734 nm, according to the reported procedure[64]^,[65]. The absorbance (Atest) was measured upon the addition of 20 µl of 1 mg/ml solution of the test sample in spectroscopic grade methanol/phosphate buffer (1:1 v/v) to the ABTS solution. The decrease in absorbance is expressed as % inhibition, which can be calculated from the following equation: % inhibition = Acontrol-Atest/Acontrol×100.
L-Ascorbic acid 20 µl (2 mM) solution was used as standard antioxidant (positive control). A blank sample was run using only methanol/phosphate buffer (1:1), while the negative control was run with ABTS and the methanol/phosphate buffer.
The assay is based on measuring the ability of the tested compounds to scavenge the long-life radical cation of ABTS[22]^,[43]^,[64]^,[65].

Row | IC50 (HepG2 cells) [µM] | IC50 (MCF-7 cells) [µM] | IC50 (HeLa cells) [µM] | IC50 (PC-3 cells) [µM] | melting point [°C] | SMILES | %Inhibition of the ABTS radical cation [1] [%]
1 | 62.3 ± 4.1 | 58.4 ± 4.5 | 46.2 ± 3.3 | 50.1 ± 3.55 | 120 to 122 | Cc1ccc(C2=NOC(c3ccc(OC4CCCC4)cc3)C2)cc1 (centres unmarked) [compound 9, 5-(4-(cyclopentyloxy)phenyl)-3-(4-methylphenyl)-4,5-dihydroisoxazole] | 60.0
2 | 30.8 ± 2.07 | 48.1 ± 3.25 | 66.8 ± 4.07 | 69.4 ± 4.32 | > 300 | O=C(O)c1cc(C=Cc2ccc(OC3CCCC3)cc2)nc2ccc(F)cc12 [12b, 2-(4-(Cyclopentyloxy)styryl)-6-fluoroquinoline-4-carboxylicacid] | 50.0
3 | 92.9 ± 5.82 | 97.3 ± 5.51 | 62.4 ± 3.8 | 87.7 ± 5.41 | 272 to 273 | Cc1ccc(-c2cc(-c3ccc(OC4CCCC4)cc3)c(C#N)c(N)n2)cc1 [compound 11, 2-amino-4-(4-(cyclopentyloxy)phenyl)-6-(4-methylphenyl)nicotinonitrile] | 
4 | 18.9 ± 1.35 | 29.3 ± 1.97 | 16.2 ± 1.36 | 12.7 ± 1.13 | 145 to 146 | Cc1ccc(C2=NNC(c3ccc(OC4CCCC4)cc3)C2)cc1 (centres unmarked) [8a, 5-(4-(Cyclopentyloxy)phenyl)-3-(4-methylphenyl)-4,5-dihydro-1H-pyrazole] | 53.0
